For assay [1], the system named is human lymphoma cell line RAMOS cells. Description: Cell growth inhibition test using RAMOS cell, ATP assay (CellTiter-Glo). As to conditions: Homo sapiens, Ramos, 72 h, cultured 3 days, 50% growth inhibition concentration. Format: cell-based. An outline of the steps:
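RAMOS cells seeded at 4000 cells/well with compound and cultured 3 days at 37° C, 5% CO2; viability by CellTiter-Glo luminescence. Growth rate T/C % = 100×[(B−C)/(A−C)] using day-0 and final readings; GI50 interpolated from the two concentrations bracketing 50% growth.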
Background: In ATP-based viability assays light output follows the ATP content of the culture.

Assay [2] has the same test system. Description: Cell growth inhibition test using RAMOS cell, MTT assay. The assay is classed as cell-based. As to conditions: 50% growth inhibition concentration. In a few lines:
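Cells in RPMI1640 with 10% FBS were exposed to compound (DMSO ≤1%) for 3 days at 37° C, 5% CO2. Viability was read by MTT (4 h, formazan in DMSO, OD 540/660 nm) against a day-0 plate; GI50 was interpolated from T/C % growth rates.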
(In general: Tetrazolium assays rely on reduction of a dye to a coloured formazan, in cell work by metabolically active cells.)

The target of the next assay is T1, TIP48/TIP49 complex (Homo sapiens, UniProt Q9Y230+Q9Y265).
T1 construct: made in house; host or cells: E. coli
Description: ATPase assay of TIP48/TIP49 complex (ADP-Glo). Format: biochemical. As to conditions: concentration at which the ATPase activity was inhibited by 50%. In a few lines: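 Recombinant human TIP48 and TIP49 expressed in E. coli (24.5 μg/mL final) were incubated 1.5 h at room temperature with compound (0.0007–200 μM, 2% DMSO) in Tris-HCl pH 7.5 buffer containing MgCl2 and ATP. ADP formed was detected by ADP-Glo luminescence; inhibition came from dose-response curves.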
A general note: ADP-Glo turns the ADP formed in a reaction into a luminescent signal.

T1 sequence (Q9Y230 whole entry): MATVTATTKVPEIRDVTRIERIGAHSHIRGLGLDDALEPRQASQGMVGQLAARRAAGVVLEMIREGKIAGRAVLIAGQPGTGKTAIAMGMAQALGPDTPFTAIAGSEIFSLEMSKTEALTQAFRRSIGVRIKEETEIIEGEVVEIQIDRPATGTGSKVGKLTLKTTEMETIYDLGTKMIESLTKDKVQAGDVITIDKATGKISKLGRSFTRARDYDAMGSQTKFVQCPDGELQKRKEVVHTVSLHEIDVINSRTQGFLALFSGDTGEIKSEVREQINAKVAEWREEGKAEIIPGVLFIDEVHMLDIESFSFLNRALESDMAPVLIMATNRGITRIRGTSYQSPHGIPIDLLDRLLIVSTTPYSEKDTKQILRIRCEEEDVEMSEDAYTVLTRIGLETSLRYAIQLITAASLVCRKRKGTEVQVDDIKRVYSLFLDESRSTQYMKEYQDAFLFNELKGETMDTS
T1 sequence (Q9Y265 whole entry): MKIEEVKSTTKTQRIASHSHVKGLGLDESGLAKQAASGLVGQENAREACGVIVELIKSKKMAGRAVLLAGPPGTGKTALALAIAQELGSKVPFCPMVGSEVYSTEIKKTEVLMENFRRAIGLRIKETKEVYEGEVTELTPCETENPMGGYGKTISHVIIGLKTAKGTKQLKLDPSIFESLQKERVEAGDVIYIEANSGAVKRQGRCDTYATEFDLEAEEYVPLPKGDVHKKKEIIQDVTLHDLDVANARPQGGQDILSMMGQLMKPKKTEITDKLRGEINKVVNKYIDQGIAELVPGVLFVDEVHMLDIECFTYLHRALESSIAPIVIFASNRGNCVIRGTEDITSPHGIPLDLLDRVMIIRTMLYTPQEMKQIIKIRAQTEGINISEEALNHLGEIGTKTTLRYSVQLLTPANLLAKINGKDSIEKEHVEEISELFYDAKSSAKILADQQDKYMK

Broadly, the GI50 is the concentration giving 50% growth inhibition. Higher therefore signals lower sensitivity of the cells. Broadly, the IC50 is the concentration that inhibits the measured activity by half. Regarding `CCOc1ccc(Cl)cc1C(=O)NCC(C)(C)CC(=O)Nc1c(CCN(C)C)n(C)n(-c2ccccc2)c1=O` [Example 11, 5-Chloro-N-[4-({5-[2-(dimethylamino)ethyl]-1-methyl-3-oxo-2-phenyl-2,3-dihydro-1H-pyrazol-4-yl}amino)-2,2-dimethyl-4-oxobutyl]-2-ethoxybenzamide], the 50% growth inhibitory concentration (GI50) in assay [1] came out at 150 nM; in assay [2] it was 53 nM. This compound also showed a half-maximal inhibitory concentration (IC50) against TIP48/TIP49 complex of 53 nM.
For the compound `Cc1cc2cc(Cl)cc(C(=O)NCC(C)(C)CC(=O)Nc3c(CCN(C)C)n(C)n(-c4ccccc4)c3=O)c2o1` [Example 14, 5-Chloro-N-[4-({5-[2-(dimethylamino)ethyl]-1-methyl-3-oxo-2-phenyl-2,3-dihydro-1H-pyrazol-4-yl}amino)-2,2-dimethyl-4-oxobutyl]-2-methylbenzofuran-7-carboxamide], the results for the GI50 in assay [1] and in assay [2] were 130 nM and 32 nM, respectively. 41 nM corresponded to half-maximal inhibition against TIP48/TIP49 complex (IC50).
As for `CCOc1ccc(Cl)cc1C(=O)NCC(C)(C)CC(=O)Nc1c(COC)n(C)n(-c2ccccc2)c1=O` [Example 114, 5-Chloro-2-ethoxy-N-(4-{[5-(methoxymethyl)-1-methyl-3-oxo-2-phenyl-2,3-dihydro-1H-pyrazol-4-yl]amino}-2,2-dimethyl-4-oxobutyl)benzamide], the 50% growth inhibitory concentration (GI50) was 140 nM in assay [1] and 42 nM in assay [2]. The compound also returned an IC50 against TIP48/TIP49 complex of 31 nM.
Regarding `CCOc1ccc(Cl)cc1C(=O)NCC(C)(C)CC(=O)Nc1c(CCN(C)C)n(CC)n(-c2ccccc2)c1=O` [Example 40, 5-Chloro-N-[4-({5-[2-(dimethylamino)ethyl]-1-ethyl-3-oxo-2-phenyl-2,3-dihydro-1H-pyrazol-4-yl}amino)-2,2-dimethyl-4-oxobutyl]-2-ethoxybenzamide], the GI50 in assay [1] turned out to be 120 nM; in assay [2], 27 nM. Further, the concentration for half-maximal inhibition (IC50) against TIP48/TIP49 complex is 33 nM.
With `Cc1cccc(-n2c(=O)c(NC(=O)CC(C)(C)CNC(=O)c3cc(Cl)cc4cc(C)oc34)c(C)n2C)n1` [Example 155, 5-Chloro-N-(4-{[1,5-dimethyl-2-(6-methyl-2-pyridyl)-3-oxopyrazol-4-yl]amino}-2,2-dimethyl-4-oxobutyl)-2-methylbenzofuran-7-carboxamide], the GI50 is 190 nM in assay [1] and 59 nM in assay [2]. The IC50 against TIP48/TIP49 complex worked out at 59 nM.
Regarding `CCOc1ccc(Cl)cc1C(=O)NCC(C)(C)CC(=O)Nc1c(CCN(C)CC(F)(F)F)n(C)n(-c2ccccc2)c1=O` [Example 39, 5-Chloro-N-{2,2-dimethyl-4-[(1-methyl-5-{2-[methyl(2,2,2-trifluoroethyl)amino]ethyl}-3-oxo-2-phenyl-2,3-dihydro-1H-pyrazol-4-yl)amino]-4-oxobutyl}-2-ethoxybenzamide], the results for the GI50 in assay [1] and in assay [2] were 240 nM and 99 nM, respectively. Besides, the 50% inhibitory concentration (IC50) against TIP48/TIP49 complex came to 82 nM.
The like results for `CCOc1ncc(Cl)cc1C(=O)NCC(C)(C)CC(=O)Nc1c(CCN(C)C)n(C)n(-c2ccccc2)c1=O` [Example 13, 5-Chloro-N-[4-({5-[2-(dimethylamino)ethyl]-1-methyl-3-oxo-2-phenyl-2,3-dihydro-1H-pyrazol-4-yl}amino)-2,2-dimethyl-4-oxobutyl]-2-ethoxypyridine-3-carboxamide] were, in that order, 610 nM, 110 nM and 82 nM.
Taken in the same sequence, the figures for `CCOc1ncc(Cl)cc1NC(=O)CC(C)(C)CC(=O)Nc1c(COC)n(C)n(-c2ccccc2)c1=O` [Example 118, N-(5-Chloro-2-ethoxy-3-pyridine)-N′-[5-(methoxymethyl)-1-methyl-3-oxo-2-phenyl-2,3-dihydro-1H-pyrazol-4-yl]-3,3-dimethylpentanediamide] were 640 nM, 230 nM and 65 nM.
`COc1ccc(Cl)cc1NC(=O)CC1(CC(=O)Nc2c(C)n(C)n(-c3ccccc3)c2=O)CC1` [Example 101, N-(5-Chloro-2-methoxyphenyl)-2-(1-{2-[(1,5-dimethyl-3-oxo-2-phenyl-2,3-dihydro-1H-pyrazol-4-yl)amino]-2-oxoethyl}cyclopropyl)acetamide] displayed a 50% growth inhibitory concentration (GI50) in assay [2] of 3200 nM. Besides, inhibition at TIP48/TIP49 complex was half-maximal at 450 nM (IC50).
The like results for `Cc1cccc(-n2c(=O)c(NC(=O)CC(C)(C)CC(=O)Nc3cc(Cl)ccc3OC(F)(F)F)c(C)n2C)n1` [Example 154, N-[5-Chloro-2-(trifluoromethoxy)phenyl]-N′-[1,5-dimethyl-2-(6-methyl-2-pyridyl)-3-oxo-2,3-dihydro-1H-pyrazol-4-yl]-3,3-dimethylpentanediamide] were, in that order, 110 nM and 82 nM.
`CCOc1ncc(Cl)cc1C(=O)NCC(C)(C)CC(=O)Nc1c(C)n(C)n(-c2ccccc2)c1=O` [Example 95]: the GI50 in assay [2] was determined as 180 nM. At TIP48/TIP49 complex, this compound came in with an IC50 of 59 nM.
The like results for `CCC(C)(CC(=O)Nc1cc(Cl)ccc1OC)CC(=O)Nc1c(C)n(C)n(-c2ccccc2)c1=O` (stereo not shown) [Example 99, N-(5-Chloro-2-methoxyphenyl)-N′-(1,5-dimethyl-3-oxo-2-phenyl-2,3-dihydro-1H-pyrazol-4-yl)-3-ethyl-3-methylpentanediamide] were, in that order, 400 nM and 260 nM.
Taken in the same sequence, the figures for `COc1ccc(Cl)cc1NC(=O)CC(C)(C)CC(=O)Nc1cn(C)n(-c2ccccc2)c1=O` [Example 136, N-(5-Chloro-2-methoxyphenyl)-3,3-dimethyl-N′-(1-methyl-3-oxo-2-phenyl-2,3-dihydro-1H-pyrazol-4-yl)pentanediamide] were 1700 nM and 310 nM.
`CCOc1ncc(Cl)cc1C(=O)NCC(C)(C)CC(=O)Nc1c(C)n(CCN(C)C)n(-c2ccccc2)c1=O` [Example 141, 5-Chloro-N-[4-({1-[2-(dimethylamino)ethyl]-5-methyl-3-oxo-2-phenyl-2,3-dihydro-1H-pyrazol-4-yl}amino)-2,2-dimethyl-4-oxobutyl]-2-ethoxypyridine-3-carboxamide] had a GI50 in assay [2] of 230 nM. This compound also yielded an IC50 against TIP48/TIP49 complex of 160 nM.
The like results for `CCOc1ccc(Cl)cc1C(=O)NCC(C)(C)CC(=O)Nc1c(CCCN(C)C)n(C)n(-c2ccccc2)c1=O` [Example 63, 5-Chloro-N-[4-({5-[3-(dimethylamino)propyl]-1-methyl-3-oxo-2-phenyl-2,3-dihydro-1H-pyrazol-4-yl}amino)-2,2-dimethyl-4-oxobutyl]-2-ethoxybenzamide] were, in that order, 100 nM and 29 nM.
As to `COc1ccc(Cl)cc1C(=O)NCC(C)(C)CC(=O)Nc1c(CCN)n(C)n(-c2ccccc2)c1=O` [Example 21], halving of growth in assay [2] (GI50) required 920 nM. This compound also displayed an IC50 against TIP48/TIP49 complex of 110 nM.
As to `CCOc1ccc(Cl)cc1C(=O)NCC(C)(C)CC(=O)Nc1c(C)n(C)n(-c2cc(OC)ccn2)c1=O` [Example 157, 5-Chloro-2-ethoxy-N-(4-{[1-(4-methoxy-2-pyridyl)-2,3-dimethyl-5-oxopyrazol-4-yl]amino}-2,2-dimethyl-4-oxobutyl)benzamide], the values for the GI50 in assay [1] and in assay [2] were 430 nM and 120 nM, respectively. Besides, the half-maximal inhibitory concentration (IC50) against TIP48/TIP49 complex stood at 140 nM.
Regarding `Cc1ccc2cc(Cl)cc(C(=O)NCC(C)(C)CC(=O)Nc3c(C)n(C)n(-c4ccccc4)c3=O)c2n1` [Example 107, 6-Chloro-N-{4-[(1,5-dimethyl-3-oxo-2-phenyl-2,3-dihydro-1H-pyrazol-4-yl)amino]-2,2-dimethyl-4-oxobutyl}-2-methylquinoline-8-carboxamide], halving of growth in assay [2] (GI50) required 190 nM. The compound also came in with an IC50 at TIP48/TIP49 complex of 66 nM.
Taken in the same sequence, the figures for `CCOc1ccc(Cl)cc1C(=O)NCC(C)(C)CC(=O)Nc1c(CCNC(C)C)n(C)n(-c2ccccc2)c1=O` [Example 18, 5-Chloro-N-[4-({5-[2-(isopropylamino)ethyl]-1-methyl-3-oxo-2-phenyl-2,3-dihydro-1H-pyrazol-4-yl}amino)-2,2-dimethyl-4-oxobutyl]-2-ethoxybenzamide] were 550 nM and 65 nM.
Turning to `CCOc1cc(F)c(Cl)cc1C(=O)NCC(C)(C)CC(=O)Nc1c(CCN(C)C)n(C)n(-c2ccccc2)c1=O` [Example 12, 5-Chloro-N-[4-({5-[2-(dimethylamino)ethyl]-1-methyl-3-oxo-2-phenyl-2,3-dihydro-1H-pyrazol-4-yl}amino)-2,2-dimethyl-4-oxobutyl]-2-ethoxy-4-fluorobenzamide], the GI50 was 140 nM in assay [1] and 35 nM in assay [2]. The compound also had a concentration for half-maximal inhibition (IC50) against TIP48/TIP49 complex of 62 nM.
In assay [2], `COc1ccc(Cl)cc1C(=O)NCC(C)(C)CC(=O)Nc1c(CCNC(=O)OC(C)(C)C)n(C)n(-c2ccccc2)c1=O` [Example 20, tert-Butyl N-{2-[4-({4-[(5-chloro-2-methoxybenzoyl)amino]-3,3-dimethylbutanoyl}amino)-2-methyl-5-oxo-1-phenyl-2,3-dihyro-1H-pyrazol-3-yl]ethyl}carbamate] showed a concentration for 50% growth inhibition (GI50) of 190 nM. On TIP48/TIP49 complex, this compound yielded a half-inhibitory concentration (IC50) of 65 nM.
